Reference: patent publication US7067549B2, “Pyrrolidone carboxamides” (Actelion Pharmaceuticals AG, priority 2001, dated 2006)

Molecular target: T1, mouse NPY-Y5 receptors (mNPY-Y5) (Mus musculus, UniProt O70342)
T1 construct: The full-length cDNA which contains the mouse NPY-Y5 (mNPY-Y5) receptor coding was amplified from mouse brain cDNA; expressed in transfected cells
T1 sequence (O70342 1-466): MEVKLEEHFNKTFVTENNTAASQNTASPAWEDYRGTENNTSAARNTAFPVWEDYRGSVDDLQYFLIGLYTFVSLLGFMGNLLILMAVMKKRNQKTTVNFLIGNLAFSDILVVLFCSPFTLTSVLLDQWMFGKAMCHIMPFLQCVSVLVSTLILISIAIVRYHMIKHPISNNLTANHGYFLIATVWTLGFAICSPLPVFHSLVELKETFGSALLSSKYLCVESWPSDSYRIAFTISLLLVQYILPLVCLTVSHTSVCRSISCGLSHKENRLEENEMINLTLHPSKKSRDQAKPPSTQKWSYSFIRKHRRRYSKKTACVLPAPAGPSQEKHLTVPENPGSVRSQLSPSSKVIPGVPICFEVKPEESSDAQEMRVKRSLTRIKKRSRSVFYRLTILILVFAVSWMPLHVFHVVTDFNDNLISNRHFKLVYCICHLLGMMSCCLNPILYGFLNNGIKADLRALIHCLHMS
Assay: Radioligand competition binding (125I-PYY) on membranes of HEK293 cells expressing recombinant mouse NPY-Y5 receptor
Conditions: displacement of 100 pM 125I-labeled PYY, 1 h at 22° C., read-out: NPY5 IC50
Source text: The full-length cDNA which contains the mouse NPY-Y5 (mNPY-Y5) receptor coding was amplified from mouse brain cDNA using specific primers, which were custom-made on the basis of published sequences, and employing Pfu DNA polymerase (Stratagene). The amplification product was subcloned into a mammalian expression vector pcDNA3 using EcoRI and XhoI restriction sites. Positive clones were sequenced; one clone, which contained the published sequence, was selected for preparing stable cell clones.
Human embryonic kidney 293 (HEK293) cells were transfected with 10 μg of mNPY5 DNA using Lipofectamine reagent (Gibco BRL) in accordance with the manufacturer's instructions. Two days after the transfection, the geneticin selection (1 mg/ml) was initiated and several stable clones were isolated. One of the clones was used for further pharmacological characterization.
Human embryonic kidney cells (HEK293) which express recombinant mouse NPY-Y5 receptors (mNPY-Y5) were disrupted by being frozen/thawed three times in hypotonic Tris buffer (5 mM, pH 7.4, 1 mM MgCl2), after which they were homogenized and centrifuged at 72 000 G for 15 minutes. The precipitate was washed twice with Tris buffer (pH 7.4) containing 25 mM MgCl2, 250 mM sucrose, 0.1 mM phenylmethylsulfonyl fluoride and 0.1 mM 1,10-phenanthroline, then resuspended in the same buffer and stored in aliquots at −80° C. The protein was determined by the Lowry method using bovine serum albumin (BSA) as the standard.
The competition binding analysis was carried out in 250 μl of 25 mM Hepes buffer (pH 7.4, 2.5 mM CaCl2, 1 mM MgCl2, 1% bovine serum albumin and 0.01% sodium azide) which 5 μg of protein, 100 pM ^125I-labeled peptide YY (PYY) and 10 μl of a DMSO solution containing increasing quantities of DMSO solution containing unlabeled test compound. After a one-hour incubation at 22° C., the bound ligand was separated from the unbound ligand by means of filtration through a glass fiber filter. Nonspecific binding was determined in the presence of 1 μM unlabeled PYY. Specific binding is defined as the difference between total binding and nonspecific binding. An IC50 value is defined as the concentration of the antagonist which displaces 50% of the ^125I-labeled […]. This concentration is determined by linear regression analysis following logit/log transformation of the binding values.

Row | SMILES | IC50 [nM]
1 | Cc1ccc(C)c(N2CC(C(=O)Nc3ccc(C(C)C)cc3)CC2=O)c1 (racemic) [rac. N-(4-Isopropylphenyl)-1-(2,5-dimethylphenyl)-5-oxopyrrolidine-3-carboxamide] | 45
2 | CCN(c1ccccc1)c1ccc(NC(=O)C2CC(=O)N(c3cc(OC)ccc3C)C2)cc1 (racemic) [rac. N-[4-(Ethylphenylamino)phenyl]-1-(5-methoxy-2-methylphenyl)-5-oxopyrrolidine-3-carboxamide] | 30
3 | CCn1c2ccccc2c2cc(NC(=O)C3CC(=O)N(Cc4ccc(OC)cc4OC)C3)ccc21 (racemic) [rac. N-(9-Ethyl-9H-carbazol-3-yl)-1-(2,4-dimethoxybenzyl)-5-oxopyrrolidine-3-carboxamide] | 20
4 | Cc1ccc(C)c(N2CC(C(=O)Nc3ccc(Nc4ccccc4)cc3)CC2=O)c1 (racemic) [rac. N-(4-Phenylaminophenyl)-1-(2,5-dimethylphenyl)-5-oxopyrrolidine-3-carboxamide] | 30
5 | CCn1c2ccccc2c2cc(NC(=O)C3CC(=O)N(Cc4cccs4)C3)ccc21 (racemic) [rac. N-(9-Ethyl-9H-carbazol-3-yl)-5-oxo-1-thiophen-2-ylmethylpyrrolidine-3-carboxamide] | 10
6 | CCn1c2ccccc2c2cc(NC(=O)C3CC(=O)N(CCc4ccccn4)C3)ccc21 (racemic) [rac. N-(9-Ethyl-9H-carbazol-3-yl)-5-oxo-1-(2-pyridin-2-ylethyl)pyrrolidine-3-carboxamide] | 3
7 | CCN(c1ccc(NC(=O)C2CC(=O)N(c3cc(OC)ccc3C)C2)cc1)c1nc(C)cc(C)n1 (racemic) [rac. N-{4-[(4,6-Dimethylpyrimidin-2-yl)ethylamino]phenyl}-1-(5-methoxy-2-methylphenyl)-5-oxopyrrolidine-3-carboxamide] | 15
8 | CCn1c2ccccc2c2cc(NC(=O)C3CC(=O)N(C4CCCCCC4)C3)ccc21 (racemic) [rac. N-(9-Ethyl-9H-carbazol-3-yl)-1-cycloheptyl-5-oxopyrrolidine-3-carboxamide] | 15
9 | Cc1ccc(C)c(N2CC(C(=O)Nc3ccc(N(C)c4nc(C)cc(C)n4)cc3)CC2=O)c1 (racemic) [rac. N-{4-[(4,6-Dimethylpyrimidin-2-yl)methylamino]phenyl}-1-(2,5-dimethylphenyl)-5-oxopyrrolidine-3-carboxamide] | 20
10 | CCn1c2ccccc2c2cc(NC(=O)C3CC(=O)N(c4cc(OC)ccc4C)C3)ccc21 (racemic) [rac. N-(9-Ethyl-9H-carbazol-3-yl)-1-(5-methoxy-2-methylphenyl)-5-oxopyrrolidine-3-carboxamide] | 10
11 | Cc1ccc(C)c(N2CC(C(=O)Nc3ccc(N(C)c4ccccc4)cc3)CC2=O)c1 (racemic) [rac. N-[4-(Methylphenylamino)phenyl]-1-(2,5-dimethylphenyl)-5-oxopyrrolidine-3-carboxamide] | 26
12 | CCN(CC)c1ccc(NC(=O)C2CC(=O)N(c3cc(C)ccc3C)C2)cc1 (racemic) [rac. N-(4-Diethylaminophenyl)-1-(2,5-dimethylphenyl)-5-oxopyrrolidine-3-carboxamide] | 9
13 | CCN(c1ccc(NC(=O)C2CC(=O)N(c3ccccc3C(C)C)C2)cc1)c1nc(C)cc(C)n1 (racemic) [rac. N-{4-[(4,6-Dimethylpyrimidin-2-yl)ethylamino]phenyl}-1-(2-isopropylphenyl)-5-oxopyrrolidine-3-carboxamide] | 46
14 | CCn1c2ccccc2c2cc(NC(=O)C3CC(=O)N(c4ccc(C)cc4)C3)ccc21 (racemic) [rac. N-(9-Ethyl-9H-carbazol-3-yl)-5-oxo-1-p-tolylpyrrolidine-3-carboxamide] | 30
15 | Cc1ccc(N2CC(C(=O)Nc3ccc(Nc4nc(C)cc(C)n4)cc3)CC2=O)cc1 (racemic) [rac. N-[4-(4,6-Dimethylpyrimidin-2-ylamino)phenyl]-5-oxo-1-p-tolylpyrrolidine-3-carboxamide] | 32
16 | Cc1ccc(N2CC(C(=O)Nc3ccc(N(C)c4nc(C)cc(C)n4)cc3)CC2=O)cc1 (racemic) [rac. N-{4-[(4,6-Dimethylpyrimidin-2-yl)methylamino]phenyl}-5-oxo-1-p-tolylpyrrolidine-3-carboxamide] | 22
17 | COc1ccc(C)c(N2CC(C(=O)Nc3ccc(N(C)c4nc(C)cc(C)n4)cc3)CC2=O)c1 (racemic) [rac. N-{4-[(4,6-Dimethylpyrimidin-2-yl)methylamino]phenyl}-1-(5-methoxy-2-methylphenyl)-5-oxopyrrolidine-3-carboxamide] | 41
18 | CC(C)c1ccccc1N1CC(C(=O)Nc2ccc(N(CC3CC3)c3ccccc3)cc2)CC1=O (racemic) [rac. N-[4-(Cyclopropylmethylphenylamino)phenyl]-1-(2-isopropylphenyl)-5-oxopyrrolidine-3-carboxamide] | 47
19 | CCn1c2ccccc2c2cc(NC(=O)C3CC(=O)N(c4cccc(OC)c4)C3)ccc21 (racemic) [rac. N-(9-Ethyl-9H-carbazol-3-yl)-1-(3-methoxyphenyl)-5-oxopyrrolidine-3-carboxamide] | 20
20 | Cc1cc(C)nc(Nc2ccc(NC(=O)C3CC(=O)N(c4ccccc4C(C)C)C3)cc2)n1 (racemic) [rac. N-[4-(4,6-Dimethylpyrimidin-2-ylamino)phenyl]-1-(2-isopropylphenyl)-5-oxopyrrolidine-3-carboxamide] | 25
21 | CC(C)c1ccccc1N1CC(C(=O)Nc2ccc(Nc3ccccc3)cc2)CC1=O (racemic) [rac. N-(4-Phenylaminophenyl)-1-(2-isopropylphenyl)-5-oxopyrrolidine-3-carboxamide] | 41
22 | CCn1c2ccccc2c2cc(NC(=O)C3CC(=O)N(c4cccc(F)c4)C3)ccc21 (racemic) [rac. N-(9-Ethyl-9H-carbazol-3-yl)-1-(3-fluorophenyl)-5-oxopyrrolidine-3-carboxamide] | 30
23 | CCn1c2ccccc2c2cc(NC(=O)C3CC(=O)N(CCc4cccs4)C3)ccc21 (racemic) [rac. N-(9-Ethyl-9H-carbazol-3-yl)-5-oxo-1-(2-thiophen-2-ylethyl)pyrrolidine-3-carboxamide] | 10
24 | CCN(c1ccc(NC(=O)C2CC(=O)N(c3cc(C)ccc3C)C2)cc1)C(C)C (racemic) [rac. N-[4-(Ethylisopropylamino)phenyl]-1-(2,5-dimethylphenyl)-5-oxopyrrolidine-3-carboxamide] | 10
25 | Cc1ccc(C)c(N2CC(C(=O)Nc3ccc(N(c4ccccc4)C(C)C)cc3)CC2=O)c1 (racemic) [rac. N-[4-(Isopropylphenylamino)phenyl]-1-(2,5-dimethylphenyl)-5-oxopyrrolidine-3-carboxamide] | 22
26 | CCN(c1ccc(NC(=O)C2CC(=O)N(CC(O)c3ccccc3)C2)cc1)c1nc(C)cc(C)n1 (racemic) [rac. N-{4-[(4,6-Dimethylpyrimidin-2-yl)ethylamino]phenyl}-1-(2-hydroxy-2-phenylethyl)-5-oxo-pyrrolidine-3-carboxamide] | 33
27 | CC(C)c1ccccc1N1CC(C(=O)Nc2ccc(N(c3ccccc3)C(C)C)cc2)CC1=O (racemic) [rac. N-[4-(Isopropylphenylamino)phenyl]-1-(2-isopropylphenyl)-5-oxopyrrolidine-3-carboxamide] | 34
28 | Cc1ccc(C)c(N2CC(C(=O)Nc3ccc(Nc4nc(C)cc(C)n4)cc3)CC2=O)c1 (racemic) [rac. N-[4-(4,6-Dimethylpyrimidin-2-ylamino)phenyl]-1-(2,5-dimethylphenyl)-5-oxopyrrolidine-3-carboxamide] | 20
29 | CCN(c1ccccc1)c1ccc(NC(=O)C2CC(=O)N(c3ccccc3C(C)C)C2)cc1 (racemic) [rac. N-[4-(Ethylphenylamino)phenyl]-1-(2-isopropylphenyl)-5-oxopyrrolidine-3-carboxamide] | 23
